Where “and” joins values, the source holds several entries; their conditions need not be identical. Identical values can stand only once. Entries after “also recorded” stand apart in the source; their conditions may differ. Counter-ions that a name gives are not always drawn. Like-named read-outs stand apart in the source and are kept apart here. Marks after values point to notes of the source that are not given here.
Columns and labels:
Male C57BI mice = assay: Apomorphine mediated inhibition of RITALIN®-induced hyperactivity in activity box (pilot study, Example 5); assay type: in vivo; details: for locomotion after apomorphine alone: given at 5 mg/kg, 5 mg/kg
Protocol: Male mice C57BI weighing about 22 g were used in the study.
Male C57BI mice weighing about 22 g were used in the study.
Mice were administered saline solutions of the two actives as follows:
Methylphenidate was dissolved in saline 0.9% to a concentration of 0.5 mg/ml,
Both compounds' solutions were administered at dose volume of […].
Animals' motor locomotion in four groups (1-4 M) was assessed in the activity box. Animals were placed in the activity box and several parameters were observed including movement time, distance, V-plan entries, margin vs. center time, and other parameters. Groups 1-3 M were monitored for 30 minutes each, during which all parameters were assessed at 2 minutes intervals. In the 4 M group, animals were monitored for 60 minutes with 2 minutes assessment intervals. The assessment in the activity box was done in total darkness (red light was used for illumination). The main parameters that were calculated in this study were the move time, total distance and vertical plan entry. The observation for groups 1-3 M were made during 30 minutes with 2 minutes calculation intervals of each parameter. In the fourth group (4 M) the observations were extended for 60 minutes with 2 minutes calculation intervals

C57bl/6J male mice = assay: Open Field Test (OFT, activity box) with Methylphenidate, Apomorphine and their combination (Example 7); assay type: in vivo; details: for Center Time / Distance / Rearing Time / Velocity: Day 1, group average; for effect on Methylphenidate-increased distance travelled and velocity: Methylphenidate 5 mg/kg, dose dependent
Protocol: Eight groups comprising eight or nine C57bl/6J male mice were assigned for this study. Methylphenidate (MPH) was used as the model inducer. […] Spontaneous activity in Open Field Test (OFT) was performed.
Each Test Item and vehicle formulation was administrated to 8/9 mice per group. The administration was performed PO or IP according to group allocation in Table 1.
The open field test (OFT) is a commonly used qualitative and quantitative measure of general locomotor activity and willingness to explore in rodents. Open Field test (OFT) was performed according to Pharmaseed SOP No. 113: “Open Field for Mice Testing”. OFT was performed 15 or 30 min after test item IP or PO administration, respectively.
Fifteen minutes after test item/vehicle administration, mice were placed at the center of an open field box (43×43×40 cm) approximately at the same time of the day. On each side of the open field box, two frames placed at 2 and 5 cm height with 16 photocell beams per side ensured movement detection. The computer defined grid lines that divided the open field into two compartments: margin and center. Several variables were recorded during a 15 minute session of spontaneous activity including: • Indices of motor exploratory activity: distance travelled, moving time, and velocity • Indices of habituation: distance travelled during the last 5-min period in percent of the first+last 5-min periods. • Indices of anxiety: percentage of distance travelled and time spent in the central zone of the open-field. • Curiosity activity: rearing episodes and time Open Field Test (Activity Box)
OFT was performed 15 or 30 min after test item IP or PO administration, respectively. The parameters measured were distance and velocity as indicators of general motility, time spent in center as an indicator for anxiety and rearing time as indicator of the animal's curiosity.

dogs [1] = assay: Behavior observation: activity levels and clinical signs in dogs (Example 8); details: for video observation: behavior associated to hyperactivity: first 60-100 min
Protocol: (§1) Six groups comprising six dogs were assigned for this Example. Methylphenidate (MPH) was used as the model inducer. […] Behavioral observation was performed during 6 hours following test items administration and blood samples were taken on 4 dogs per group at 0.25, 0.5, 1, 1.5, 3, 4 and 6 hours post-administration for pharmacokinetic (PK) analysis.
Animals: Mixed breed dogs (5 Males+7 females/12/3 to 5 years/10.5 to 18.5 kg, from SPM Biocameltec) were used in the studies outlined in this example.
Administration of the test items: Each Test Item was administrated to 6 dogs per group. The administration was performed PO or IV according to group allocation in Table 3. The study was performed in 3 cycles and a period of wash-out of at least 10 days was respected between each cycle.
Behavior observation: The animals were observed every 10 minutes during the first 2 hours post administration, and every 20 minutes thereafter, for 6 hours. Observations included respiratory, circulatory, autonomic and central nervous systems, somatomotor activity and behavior pattern (e.g. sedation, respiration rate, changes in mentation, gait, and the like).

[2] = PK analysis of Methylphenidate and Apomorphine in dogs' plasma (Example 8); details: for change in PK profile on co-administration: t-test: no statistical significance
Protocol: as §1
Blood Collection and PK analysis: For blood collection, a 5 ml syringe was used and blood sampling was directly collected at the jugular vein. Blood samples were collected in K3-EDTA tubes at the following time points: 0.25, 0.5, 1, 1.5, 3, 4 and 6 hours post-administration (7 samples). At each time point, 6 ml of blood was collected for 4 drug-treated dogs. Plasma samples were analyzed using LC-MS/MS and PK analysis was performed using the PK Solutions Version 2.0 program.

mice = assay: Apomorphine blocking of RITALIN®-induced hyperactivity at human equivalent dosing (second study, Example 6); assay type: in vivo; details: mice (n=4)
dogs [3] = details: general statement, not this study, cited from earlier work
dogs [4] = assay: Apomorphine-induced emesis in dogs (Example 8); assay type: in vivo; details: for apomorphine-induced emesis: apomorphine IV 0.15 mg/kg, alone (group 3) or with MPH 1.7 mg/kg (group 5)
Source text: Methylphenidate (MPH) was used as the model inducer.

With `COC(=O)C(c1ccccc1)C1CCCCN1` (centres unmarked) [Methylphenidate, methylphenidate HCl] the “motor activity (move time and distance)” value (Male C57BI mice; RITALIN® 5 mg/kg, mice, activity box) was “induced hyperactivity”, the “motor activity (move time and distance covered)” value (Male C57BI mice; RITALIN® 8 mg/kg, mice, activity box, HCl, 8 mg/kg) was “induced hyperactivity” and the “change of move time and distance over time” value (Male C57BI mice; RITALIN® induced group, 30 minutes observation) was “no significant change over time”. For the same compound, the “Center Time” value (C57bl/6J male mice; MPH 5 mg/kg IP (2M)) was 89.8 s, the Distance (C57bl/6J male mice; MPH 5 mg/kg IP (2M)) was 3147.1 cm and the “Rearing Time” value (C57bl/6J male mice; MPH 5 mg/kg IP (2M)) was 114.3 s. The Velocity (C57bl/6J male mice; MPH 5 mg/kg IP (2M)) was 4.3 cm/s, the “Center Time” value (C57bl/6J male mice; MPH 5 mg/kg PO (3M)) was 88.2 s and the “Rearing Time” value (C57bl/6J male mice; MPH 5 mg/kg PO (3M)) was 104.5 s. For the same compound, the Velocity (C57bl/6J male mice; MPH 5 mg/kg PO (3M)) was 3.4 cm/s, the Distance (C57bl/6J male mice; MPH 5 mg/kg PO (3M), p < 0.05 vs. 2M) was 2198.4* cm and the “distance travelled and velocity compared to Vehicle-treated controls (1M)” value (C57bl/6J male mice; Methylphenidate 5 mg/kg IP (2M), Day 1, OFT, HCl) was “significantly increased; also recorded: caused elevation in locomotor activity”. The activity levels (dogs [1]; MPH IV 1.7 mg/kg (group 1), dogs, notably during the first 60-100 min, HCl, 1.7 mg/kg) was “caused increased activity levels; also recorded: induced increased activity levels”, the activity levels (dogs [1]; MPH IV 1.7 mg/kg (group 1), dogs, notably during the first 60-100 min, listed as MPH, HCl, 1.7 mg/kg) was “significantly increased dog activity levels” and the “time until which clinical signs were observed post administration” value (dogs [1]; MPH IV 1.7 mg/kg (group 1), at least the 30 first minutes, up to 110 minutes in one dog) was 50 to 70 min. For the same compound, the activity levels (dogs [1]; Methylphenidate PO 0.3 mg/kg (group 2), dogs, score corresponding to normal dogs) was “did not induce significant modification of activity levels”, the “video observation: behavior associated to hyperactivity” value (dogs [1]; group 1 (MPH IV 1.7 mg/kg)) was “constant barking, jumping, walking/circling and a very dynamic state” and the “change in PK profile on co-administration” value ([2]; Methylphenidate co-administered with Apomorphine, dogs) was “somewhat higher values”. The “effect of co-administration of Apomorphine on bioavailability or any other PK parameters” value ([2]; Methylphenidate, dogs) was “not affected”, the bioavailability ([2]; Methylphenidate, dogs, PO 0.3 mg/kg vs IV 1.7 mg/kg) was “comparable to values published previously in the literature” and the “animals' activity post RITALIN® administration” value (mice; RITALIN® 8.25 mg/Kg) was “drastic increase in the animals' activity”.

For `CN1CCc2cccc3c2[C@H]1Cc1ccc(O)c(O)c1-3` [Apomorphine, apomorphine], the “locomotion after apomorphine alone” value (Male C57BI mice; mice, activity box) was “caused a sudden ataxia in animals, with nearly still locomotion”, the “locomotion after apomorphine alone” value (Male C57BI mice; mice, activity box, listed as apomorphine) was “induces hypoactivity and nearly ataxic behavior” and the “effect on RITALIN®-induced hyperactivity” value (Male C57BI mice; apomorphine injected 5 minutes after RITALIN®, apomorphine 5 mg/kg, RITALIN® 8 mg/kg) was “totally abolished the effect of RITALIN®; also recorded: total dominance of the effect induced by apomorphine”. The “entering the vertical plan” value (Male C57BI mice; apomorphine, mice, activity box) was “abolished”, the “rearing time compared to Methylphenidate IP treated group (2M)” value (C57bl/6J male mice; Apomorphine 0.9 mg/kg IP in combination with Methylphenidate (7M), Day 1) was “significantly reduced rearing time” and the “antagonism of Methylphenidate-caused elevation in locomotor activity” value (C57bl/6J male mice; Apomorphine 0.05-0.9 mg/kg IP with Methylphenidate 5 mg/kg) was “antagonized this effect in a dose-dependent manner”. The “effect on Methylphenidate-increased distance travelled and velocity” value (C57bl/6J male mice; combination with Apomorphine 0.9 mg/kg IP (7M), Day 1) was “significantly reduced”, the “effect on Methylphenidate-increased distance travelled and velocity” value (C57bl/6J male mice; combination with Apomorphine 0.3 mk/kg IP (6M), Day 1) was “significantly reduced” and the “dose to induce vomiting in dogs” value (dogs [3]; IV) was “greater than 0.02 mg/kg”. For the same compound, the “dose to induce vomiting in dogs” value (dogs [3]; PO) was “greater than 4 mg/kg”, the “dose to induce vomiting in dogs” value (dogs [3]; SC) was “greater than 0.3 mg/kg” and the “time to emesis post administration” value (dogs [4]; apomorphine IV 0.15 mg/kg (group 3 and group 5), dogs) was 1 to 2 min. The apomorphine-induced emesis (dogs [4]; dogs) was “inducing emesis”, the apomorphine-induced emesis (dogs [4]; dogs, listed as apomorphine) was “observed in all treated dogs” and the induction of emesis (dogs [4]; apomorphine PO 0.027 mg/kg (group 4), dogs) was “did not induce emesis”. For the same compound, the “Recorded time for observed emesis following apomorphine administration, individual dogs” value (dogs [4]; group #3 Apo IV 0.15 mg/kg, Dog 1 to Dog 6, listed as Apo, 0.15 mg/kg) was 1.0 minutes and 1.5 minutes and 1.1 minutes (2×) and 0.8 minutes and 0.9 minutes, the “Recorded time for observed emesis following apomorphine administration, Mean” value (dogs [4]; group #3 Apo IV 0.15 mg/kg, mean of 6 dogs) was 1.1 min and the “effect on MPH-induced clinical signs” value (dogs [1]; apomorphine administered concomitantly with MPH (group 5), IV) was “abolished these MPH-induced clinical signs”. For the same compound, the “effect on MPH-induced increase in activity” value (dogs [1]; combination with Apomorphine 0.15 mg/kg IV (group 5), MPH 1.7 mg/kg IV, dogs) was “diminished the observed increases in activity; also recorded: significantly reduced the observed increase in activity; also recorded: significantly reduced these effects”, the “video observation: behavior associated to hyperactivity” value (dogs [1]; group 5 (apomorphine 0.15 mg/kg + MPH 1.7 mg/kg IV)) was “only with circling episodes” and the plasma levels ([2]; Apomorphine IV 0.15 mg/kg and PO 0.027 mg/kg, dogs' plasma, especially following oral administration) was “low levels”. The “change in PK profile on co-administration” value ([2]; Apomorphine co-administered with Methylphenidate, dogs) was “somewhat lower values” and the “animals movement / RITALIN®-induced hyperactivity after apomorphine injection” value (mice; apomorphine 1.23 mg/Kg with RITALIN® 8.25 mg/Kg) was “dramatically decreased the animals movement”.

Reference: patent US11103458B2, “Stimulant abuse-deterrent compositions” (4P-Pharma, priority 2015, dated 2021)
